From US20030231978A1, “Indoor air quality and antiseptic composition for use therein” (priority 2002, published 2003)
Entries after “also recorded” stand apart in the source; their conditions may differ. Where two headings read alike, the source gives them in different places.

Tests used:
[1] = Solution and suspension levels of terpenes in water
Excerpt: The terpene and water were blended in a household blender for 30 seconds.
Examples of these levels are as follows.

E. coli = details: cited from earlier work
[2] = Potency decay / breakdown of terpenes in presence of oxygen; assay type: physicochemical; details: 500 ppm solution
Excerpt: Terpenes will break down in the presence of oxygen. Citral, for example, is an aldehyde and will decay (oxygenate) over a period of days.

H. pylori = details: cited from earlier work
[3] = tested on: Third stage (L3) Dirofilaria immitis larvae; assay: In-vitro larvacidal effect; assay type: cell-based
Description: Third stage (L3) Dirofilaria immitis larvae were suspended at a concentration of 85 larvae/ml. Larvae were deposited on plates with wells containing b-ionone at a concentration of 5 μM, 50 μM, and 750 μM, Tween® 80, and control media.
Plates were incubated at 37° C., 95% relative humidity (RH), and 5% CO2 for 6 days.
After incubation all wells were evaluated for appearance, motility, and molting to stage four (L4) at 24, 48, 72 hours, and 6 days.

Mycoplasma pneumoniae = assay: Effectiveness against Mycoplasma pneumoniae (color change of SP4 medium); assay type: cell-based; details: 40 hours treatment
Description: Terpene beta-ionone or L-carvone was first mixed well with Tween® 80 to have a final Tween® 80 concentration of 5 vol %. This mixture was then used to make concentrations of 2500 ppm in sterile phosphate buffer saline (PBS) by blending the mixture in PBS for 40 seconds. This 2500 ppm solution was then diluted to 500 ppm, 250 ppm, and 125 ppm with PBS.
PBS containing 25 ppm Tween® 80 or PBS alone was used to treat cells suspension as controls.
A log phase (2-3 -day old) culture of Mycoplasma pneumoniae was mixed with each of the above three concentrations of terpene at 1:1 (volume) ratio (in this case, I mL of cell suspension was added to 1 mL of terpene).
The culture and terpene mixture was then incubated at 37° C. for 40 hours. After 40 hours of treatment, 10-fold serial dilution was performed to 10 (−10) by first taking 0.1 mL of the treated culture suspension was added into 0.9 mL of fresh SP4 (Whitcomb (1983); SP4 media is commercially available (Remel, Lenexa, Kans., USA)). All the tubes were then incubated at 37° C., and a color change of the medium was used for the indication of the cells that either were killed or survived from the treatment. Color change was from red to yellow because Mycoplasma pneumoniae produces acid during its growth.
All the treatments were performed in duplicate.

[4] = in water without surfactant, high-shear blending

## C=C(C)C1CC=C(C)C(=O)C1 (stereo not shown) [Carvone]
[1]; [4]
  Solution levels for various terpenes (maximum level solubilized): 500 ppm

## CC(C)=CCCC(C)=CC=O [Citral, 3,7-dimethyl-2,6-octadien-1-al]
Human erythrocytes
  Concentration that will lyse human erythrocytes: about 1000 ppm
[1]
  Level up to which a stable suspension of citral can be formed: up to 2500 ppm
[1]; true solution, high shear mixing, no surfactant
  Level up to which citral forms a solution in water: up to 1000 ppm
E. coli
  Citral in growth media that reduced the concentration of E. coli: more than 0.01%
  Citral in growth media with bactericidal effect: 0.08%
[2]
  Time to lose half its potency: 2-3 weeks

## CC(C)=CCC/C(C)=C/CO [Geraniol]
H. pylori
  Concentration that inhibited the growth of H. pylori in vitro: 2 mg/L
[1]
  Solution levels for various terpenes (maximum level solubilized): 500 ppm

## CC(=O)/C=C/C1=C(C)CCCC1(C)C [b-ionone]
[3]; 5 μM
  Survival, motility and molting of larvae: no effect on the larvae
[3]; 50 μM, 6 day assay
  Survival, motility and molting of larvae: decreased survivability, motility, and molting; also recorded: Most larvae were dead by 6 days and none molted
[3]; 750 μM
  Survival, motility and molting of larvae: all larvae were dead or moribund within 24 hours
[1]; [4]
  Solution levels for various terpenes (maximum level solubilized): 500 ppm
Mycoplasma pneumoniae; 62.5 ppm, 125 ppm and 250 ppm
  Color change of the first tube three days after the 10-fold dilution (killing effect): did not change color at all indicating a killing effect
Mycoplasma pneumoniae; 62.5 ppm
  Color change of tubes 6 days after the 10-fold dilution: only the first tube of 62.5 ppm beta-ionone changed color
Mycoplasma pneumoniae; 125 and 250 ppm
  Killing of cells, 6 days after the 10-fold dilution: may have completely killed all cells in 40 hours

## L-carvone
Mycoplasma pneumoniae; 62.5 ppm, 125 ppm and 250 ppm
  Color change of the first tube three days after the 10-fold dilution (killing effect): no killing effects
  Color change of the second and third tube 6 days after the 10-fold dilution: changed color

## Terpeniol
[1]; [4]
  Solution levels for various terpenes (maximum level solubilized): 500 ppm
